Assay results published in patent US12516058B2, “Small-molecule compounds for controlling endosomal toll-like receptors and therapeutic agent for autoimmune diseases using same” (priority 2020, dated 2026).
“Also recorded” adds a separate entry of the source.

Experiments:
[1] = target: T1, TLR3 (Mus musculus, UniProt Q99MB1); assay: TNF-α secretion ELISA after TLR3 agonist poly I:C in RAW 264.7 cells; assay type: cell-based; details: for inhibition of the function of endosomal TLR3: SK01, SK16, RAW 264.7 cells, poly I:C 24 h; for inhibitory activity against endosomal TLR3 (TNF-α secretion): SK41, SK50, SK58, SK64, poly I:C
T1 construct: RAW 264.7 cells were pretreated with each candidate compound for 1 hour; endogenous in cells; host or cells: RAW 264.7
T1 sequence (Q99MB1 26-905): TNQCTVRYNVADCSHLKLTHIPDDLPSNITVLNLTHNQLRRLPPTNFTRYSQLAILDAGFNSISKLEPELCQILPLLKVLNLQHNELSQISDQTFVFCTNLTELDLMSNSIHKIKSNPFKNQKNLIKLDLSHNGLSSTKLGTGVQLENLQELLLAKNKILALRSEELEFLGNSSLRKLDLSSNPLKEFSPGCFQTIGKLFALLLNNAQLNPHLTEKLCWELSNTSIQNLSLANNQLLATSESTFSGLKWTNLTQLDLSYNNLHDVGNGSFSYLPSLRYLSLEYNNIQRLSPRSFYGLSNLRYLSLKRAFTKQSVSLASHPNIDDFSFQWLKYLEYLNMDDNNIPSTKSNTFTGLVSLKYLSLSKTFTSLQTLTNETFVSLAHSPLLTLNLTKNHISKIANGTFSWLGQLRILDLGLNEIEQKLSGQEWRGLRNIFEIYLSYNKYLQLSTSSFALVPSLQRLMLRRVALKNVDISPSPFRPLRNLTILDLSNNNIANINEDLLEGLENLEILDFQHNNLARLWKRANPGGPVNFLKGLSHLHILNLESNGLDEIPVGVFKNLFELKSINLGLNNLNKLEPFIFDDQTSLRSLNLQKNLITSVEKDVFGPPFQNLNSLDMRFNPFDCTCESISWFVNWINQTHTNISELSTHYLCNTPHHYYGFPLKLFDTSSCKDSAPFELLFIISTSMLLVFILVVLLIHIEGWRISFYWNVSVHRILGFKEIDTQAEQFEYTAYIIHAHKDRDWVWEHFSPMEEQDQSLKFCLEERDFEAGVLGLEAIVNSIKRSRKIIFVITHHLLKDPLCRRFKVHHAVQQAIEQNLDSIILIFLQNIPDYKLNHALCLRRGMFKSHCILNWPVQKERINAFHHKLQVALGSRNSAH
Experimental: (§1) In order to determine the inhibitory activities of the test-ligand, RAW 264.7 cells were pretreated with each candidate compound for 1 hour, then treated with Pam3CSK4 (synthetic triacyl lipopeptide; TLR1/2, Invitrogen), FSL-1 (synthetic diacyl lipoprotein, TLR2/6, 100 ng/ml), lipopolysaccharide (LPS, TLR4, Sigma Aldrich), imiquimod (IMQ, TLR7, Invitrogen), and ODN2395 (type C CpG repeat motif DNA oligo(5′-[…]-3), TLR9, Bioneer) ligand for 4 hours, and treated with poly I:C (I:C repeat motif double-stranded RNA, TLR3, Invitrogen) and TL8-506 (TLR8, Invitrogen) showing delayed reactivity for 24 hours. After activation of TLR, the supernatant was diluted in an appropriate ratio so as to measure within the standard dose range, transferred to a pre-coated 96-well assay plate, and then treated with mouse TNF-alpha secretion level in accordance with the manufacturer's instructions using a mouse-TNF-alpha ELISA-kit (Invitrogen).
(§2) In order to determine the inhibitory activities of SK41, SK50, SK58 and SK64 on various TLR signaling pathways, RAW 264.7 cells were cultured along with each compound and then stimulated with different TLR agonists. The TLR agonists used herein were Pam3CSK4 (TLR1/2), FSL-1 (TLR2/6), LPS (TLR4) and FLA-ST (TLR5) as cell surface TLRs, and poly I:C (TLR3) and TL8-506 (TLR8) as endosomal TLRs.

[2] = target: T2, TLR4 (Mus musculus, UniProt Q9QUK6); assay: TNF-α secretion ELISA after LPS in RAW 264.7 cells; assay type: cell-based
T2 construct: endogenous in cells; host or cells: RAW 264.7
T2 sequence (Q9QUK6 26-835): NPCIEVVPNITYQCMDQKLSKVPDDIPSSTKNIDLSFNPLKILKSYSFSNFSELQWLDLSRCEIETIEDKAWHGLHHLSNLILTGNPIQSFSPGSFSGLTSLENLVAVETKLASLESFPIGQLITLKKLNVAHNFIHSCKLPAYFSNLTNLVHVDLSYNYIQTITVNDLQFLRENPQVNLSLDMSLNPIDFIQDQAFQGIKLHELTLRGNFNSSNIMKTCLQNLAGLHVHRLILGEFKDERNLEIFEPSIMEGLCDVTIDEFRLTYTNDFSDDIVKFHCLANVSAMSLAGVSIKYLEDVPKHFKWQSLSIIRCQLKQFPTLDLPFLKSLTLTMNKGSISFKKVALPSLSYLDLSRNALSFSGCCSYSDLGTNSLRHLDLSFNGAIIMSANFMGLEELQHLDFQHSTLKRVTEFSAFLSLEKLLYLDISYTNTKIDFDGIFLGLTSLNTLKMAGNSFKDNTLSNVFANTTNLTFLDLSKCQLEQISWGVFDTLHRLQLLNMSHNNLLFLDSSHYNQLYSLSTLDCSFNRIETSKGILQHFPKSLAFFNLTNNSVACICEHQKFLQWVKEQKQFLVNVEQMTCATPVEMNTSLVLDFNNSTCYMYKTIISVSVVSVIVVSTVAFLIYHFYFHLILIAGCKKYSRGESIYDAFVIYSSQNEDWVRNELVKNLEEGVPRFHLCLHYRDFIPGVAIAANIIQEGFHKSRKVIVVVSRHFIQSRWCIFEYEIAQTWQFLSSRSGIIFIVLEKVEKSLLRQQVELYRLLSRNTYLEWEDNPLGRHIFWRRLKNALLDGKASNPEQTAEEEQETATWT
T2 sequence (Q9JHF9 19-160 partner): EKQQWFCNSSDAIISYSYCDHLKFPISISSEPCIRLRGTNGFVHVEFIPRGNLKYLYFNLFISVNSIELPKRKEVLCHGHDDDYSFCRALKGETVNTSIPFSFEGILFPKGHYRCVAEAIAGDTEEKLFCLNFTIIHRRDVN
Experimental: as §1, §2

| SMILES | inhibition of the function of endosomal TLR3 [1] | inhibitory activity against endosomal TLR3 (TNF-α secretion) [1] | inhibitory activity against cell surface TLR4 (TNF-α secretion) [2] |
| --- | --- | --- | --- |
| Cc1c(C)n(CCN(C)C)c2nc3c(c(N)c12)CCCCC3 [SK01, 1-(2-(dimethylamino)ethyl)-2,3-dimethyl-1,5,6,7,8,9-hexahydrocyclohepta[b]pyrrolo[3,2-e]pyridin-4-amine] | specifically inhibit | – | – |
| Cc1c(C)n(CCCN(C)C)c2nc3c(c(N)c12)CCCCC3 [SK16, 1-(3-(dimethylamino)propyl)-2,3-dimethyl-1,5,6,7,8,9-hexahydrocyclohepta[b]pyrrolo[3,2-e]pyridin-4-amine] | specifically inhibit | – | – |
| Cc1cc2c(N)c3c(nc2n1CCCN(C)C)CCCCCC3 [SK41, 1-(3-(dimethylamino)propyl)-2-methyl-5,6,7,8,9,10-hexahydro-1H-cycloocta[b]pyrrolo[3,2-e]pyridin-4-amine] | – | strong inhibitory activity; also recorded: specific inhibitory activities | did not exhibit a specific inhibitory activity; also recorded: no inhibitory activities |
| COc1ccc2c(c1)c1c(N)c3c(nc1n2CCCN(C)C)CCCC3 [SK50, 6-(3-(dimethylamino)propyl)-9-methoxy-2,3,4,6-tetrahydro-1H-indolo[2,3-b]quinolin-11-amine] | – | strong inhibitory activity; also recorded: specific inhibitory activities | did not exhibit a specific inhibitory activity; also recorded: no inhibitory activities |
| Cc1ccc2c(c1)c1c(N)c3c(nc1n2CCCN(C)C)CCCC3 [SK58, 6-(3-(dimethylamino)propyl)-9-methyl-2,3,4,6-tetrahydro-1H-indolo[2,3-b]quinolin-11-amine] | – | strong inhibitory activity; also recorded: specific inhibitory activities | did not exhibit a specific inhibitory activity; also recorded: no inhibitory activities |
| COC(=O)c1ccc2c(c1)c1c(N)c3c(nc1n2CCCN(C)C)CCCC3 [SK64, Methyl 11-amino-6-(3-(dimethylamino)propyl)-2,3,4,6-tetrahydro-1H-indolo[2,3-b]quinolin-9-carboxylate] | – | strong inhibitory activity; also recorded: specific inhibitory activities | did not exhibit a specific inhibitory activity; also recorded: no inhibitory activities |
